Reference: ChEMBL document CHEMBL3638931, “Histone deacetylase inhibitors, process for preparation and uses thereof” (2014)

Target: T1, Protein deacetylase HDAC6 (Homo sapiens, UniProt Q9UBN7)
T1 sequence (Q9UBN7 whole entry): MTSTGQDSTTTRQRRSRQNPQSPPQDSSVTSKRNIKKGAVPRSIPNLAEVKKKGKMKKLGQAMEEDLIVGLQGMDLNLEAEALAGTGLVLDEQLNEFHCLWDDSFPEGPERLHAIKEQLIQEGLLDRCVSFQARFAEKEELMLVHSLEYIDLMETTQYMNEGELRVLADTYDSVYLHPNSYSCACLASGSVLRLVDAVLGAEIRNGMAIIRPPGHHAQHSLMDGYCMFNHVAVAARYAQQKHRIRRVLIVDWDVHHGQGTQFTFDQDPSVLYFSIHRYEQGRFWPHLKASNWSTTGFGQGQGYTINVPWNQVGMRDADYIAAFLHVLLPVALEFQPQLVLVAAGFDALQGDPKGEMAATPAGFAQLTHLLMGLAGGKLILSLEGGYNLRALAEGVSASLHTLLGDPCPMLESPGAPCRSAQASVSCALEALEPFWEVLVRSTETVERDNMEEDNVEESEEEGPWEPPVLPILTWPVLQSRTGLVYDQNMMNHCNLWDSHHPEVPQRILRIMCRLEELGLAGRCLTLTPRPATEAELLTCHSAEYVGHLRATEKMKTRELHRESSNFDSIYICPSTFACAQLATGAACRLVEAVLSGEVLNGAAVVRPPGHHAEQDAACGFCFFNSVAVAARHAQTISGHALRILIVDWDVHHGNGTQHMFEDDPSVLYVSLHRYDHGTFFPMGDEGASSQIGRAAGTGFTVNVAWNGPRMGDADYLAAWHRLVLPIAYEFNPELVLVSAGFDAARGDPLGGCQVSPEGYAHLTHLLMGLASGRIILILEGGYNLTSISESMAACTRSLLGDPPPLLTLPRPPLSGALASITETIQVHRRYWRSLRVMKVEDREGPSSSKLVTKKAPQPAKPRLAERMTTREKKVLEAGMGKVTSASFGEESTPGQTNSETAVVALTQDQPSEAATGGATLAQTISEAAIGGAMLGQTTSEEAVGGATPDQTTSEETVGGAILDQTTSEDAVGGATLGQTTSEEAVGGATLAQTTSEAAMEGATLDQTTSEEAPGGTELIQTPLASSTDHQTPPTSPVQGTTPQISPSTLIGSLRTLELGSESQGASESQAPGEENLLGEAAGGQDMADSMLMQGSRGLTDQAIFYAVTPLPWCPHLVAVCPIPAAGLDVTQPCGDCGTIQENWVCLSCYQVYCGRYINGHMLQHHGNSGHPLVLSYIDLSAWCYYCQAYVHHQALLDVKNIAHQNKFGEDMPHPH
Assay: BIOMOL Fluorescent-Based HDAC Assay: The BIOMOL fluorescent-based HDAC activity assay has been applied in In vitro HDACi assay for determination of IC50 values of the compounds of this invention. The assay has been carried out in white 96 well formats according to the BIOMOL's method. In order to optimize the experiment conditions and optinal, the exact concentration range of the Deacetylated Standard (biomol, KI-142) that will vary depending on the flurimeter model, the gain setting and the exact excitation and emission wavelengths used. We recommend diluting some of the standard to a relatively low concentration with Assay Buffer (an appropriate series of Deacetylated Standard dilutions from 20 uM to 0.3125 uM), and Assay Buffer as a time zero to a set of wells on the microtiter plate. Experimental to samples (five dilute groups: 100 uM, 20 uM, 4 uM, 0.8 uM, 0.16 uM) should be compared to a time zero.

Row | IC50 [nM] | Structure (SMILES)
1 | 247 | CCN(CC)CCSc1ccc(/C=C/C(=O)NO)cc1NS(=O)(=O)c1ccc(C)cc1
2 | 313 | CCN(CC)CCSc1ccc(/C=C/C(=O)NO)cc1NC(=O)C(Cl)Cl
